Assay results: patent publication US11851426B2, “Bicyclic amines as CDK2 inhibitors” (Incyte Corporation, priority 2019, dated 2023)

Target: CDK2/Cyclin E1 (Homo sapiens (Human), UniProt P24941)
Assay: CDK2/Cyclin E1 HTRF enzyme activity assay
Format: biochemical
Details: 1 mM ATP; CDK2/Cyclin E1 0.25 nM; 60 minutes at room temperature
How it was run: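 HTRF read-out of 4E-BP1 (Thr37/46) peptide phosphorylation (ULight peptide 50 nM) by 0.25 nM baculovirus-made GST-CDK2/FLAG-Cyclin E1, with ATP at 50 μM or 1 mM, 60 min at room temperature, pH 7.5. Eu-anti-phospho antibody with EDTA quench; IC50 fitted by three- or four-parameter dose-response.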

| IC50 | Compound |
| --- | --- |
| ≤ 20 nM | CS(=O)(=O)N1CCC(Nc2nc3cc(-c4cn[nH]c4)c(F)cn3n2)CC1 [Example 7, 6-fluoro-N-(1-(methylsulfonyl)piperidin-4-yl)-7-(1H-pyrazol-4-yl)-[1,2,4]triazolo[1,5-a]pyridin-2-amine] |
| ≤ 20 nM | C[C@@H]1CN(S(=O)(=O)C2CC2)CC[C@@H]1Nc1nc2ccc(-c3cn[nH]c3)c(N3CCCCC3)n2n1 [Example 85, N-((3R,4S)-1-(Cyclopropylsulfonyl)-3-methylpiperidin-4-yl)-5-(piperidin-1-yl)-6-(1H-pyrazol-4-yl)-[1,2,4]triazolo[1,5-a]pyridin-2-amine] |
| ≤ 20 nM | CS(=O)(=O)N1CCC(Nc2nc3cnc(-c4cn[nH]c4)c(N4CCCCC4)n3n2)CC1 [Example 126, N-(1-(Methylsulfonyl)piperidin-4-yl)-5-(piperidin-1-yl)-6-(1H-pyrazol-4-yl)-[1,2,4]triazolo[1,5-a]pyrazin-2-amine] |
| ≤ 20 nM | C[C@@H]1CN(S(C)(=O)=O)CC[C@@H]1Nc1nc2cnc(-c3cn[nH]c3)c(OC3CCC(F)(F)CC3)n2n1 [Example 110, 5-((4,4-Difluorocyclohexyl)oxy)-N-((3R,4S)-3-methyl-1-(methylsulfonyl)piperidin-4-yl)-6-(1H-pyrazol-4-yl)-[1,2,4]triazolo[1,5-a]pyrazin-2-amine] |
| ≤ 20 nM | CCN1CCN(CCCS(=O)(=O)N2CC[C@H](Nc3nc4c(OC(C)C)c(-c5cn[nH]c5)ncn4n3)[C@H](C)C2)CC1 [Example 62, N-((3R,4S)-1-((3-(4-Ethylpiperazin-1-yl)propyl)sulfonyl)-3-methylpiperidin-4-yl)-8-isopropoxy-7-(1H-pyrazol-4-yl)-[1,2,4]triazolo[1,5-c]pyrimidin-2-amine] |
| ≤ 20 nM | CC(C)Oc1c(-c2cn[nH]c2)ncn2nc(N[C@H]3CCN(S(=O)(=O)CCN4CCCC4)C[C@H]3C)nc12 [Example 38, 8-isopropoxy-N-((3R,4S)-3-methyl-1-((2-(pyrrolidin-1-yl)ethyl)sulfonyl)piperidin-4-yl)-7-(1H-pyrazol-4-yl)-[1,2,4]triazolo[1,5-c]pyrimidin-2-amine] |
| ≤ 20 nM | CC(C)Oc1c(-c2cn[nH]c2)ccn2nc(N[C@H]3CCN(S(C)(=O)=O)C[C@H]3C)nc12 [Example 43, 8-isopropoxy-N-((3R,4S)-3-methyl-1-(methylsulfonyl)piperidin-4-yl)-7-(1H-pyrazol-4-yl)-[1,2,4]triazolo[1,5-a]pyridin-2-amine] |
| ≤ 20 nM | CS(=O)(=O)N1CCC(Nc2nc3cnc(-c4cn[nH]c4)c(N4CC5CCC4C5)n3n2)CC1 (stereo not shown) [Example 131, 5-(2-Azabicyclo[2.2.1]heptan-2-yl)-N-(1-(methylsulfonyl)piperidin-4-yl)-6-(1H-pyrazol-4-yl)-[1,2,4]triazolo[1,5-a]pyrazin-2-amine] |
| ≤ 20 nM | CCCOc1c(-c2cn[nH]c2)ccc2nc(N[C@H]3CCN(S(C)(=O)=O)C[C@H]3C)nn12 [Example 71, N-((3R,4S)-3-Methyl-1-(methylsulfonyl)piperidin-4-yl)-5-propoxy-6-(1H-pyrazol-4-yl)-[1,2,4]triazolo[1,5-a]pyridin-2-amine] |
| ≤ 20 nM | CS(=O)(=O)N1CCC(Nc2nc3c(OCC(F)F)c(-c4cn[nH]c4)ccn3n2)CC1 [Example 9, 8-(2,2-difluoroethoxy)-N-(1-(methylsulfonyl)piperidin-4-yl)-7-(1H-pyrazol-4-yl)-[1,2,4]triazolo[1,5-a]pyridin-2-amine] |
| ≤ 20 nM | CS(=O)(=O)N1CCC(Nc2nc3c(Nc4ccccc4)c(-c4cn[nH]c4)ccn3n2)CC1 [Example 24, N^2-(1-(methylsulfonyl)piperidin-4-yl)-N^8-phenyl-7-(1H-pyrazol-4-yl)-[1,2,4]triazolo[1,5-a]pyridine-2,8-diamine] |
| ≤ 20 nM | CCS(=O)(=O)N1CC[C@H](Nc2nc3cnc(-c4cn[nH]c4)c(OC(C)C)n3n2)[C@H](C)C1 [Example 88, N-((3R,4S)-1-(Ethylsulfonyl)-3-methylpiperidin-4-yl)-5-isopropoxy-6-(1H-pyrazol-4-yl)-[1,2,4]triazolo[1,5-a]pyrazin-2-amine] |
| ≤ 20 nM | CC(C)CCOc1c(-c2cn[nH]c2)ncc2nc(NC3CCN(S(C)(=O)=O)CC3)nn12 [Example 121, 5-(Isopentyloxy)-N-(1-(methylsulfonyl)piperidin-4-yl)-6-(1H-pyrazol-4-yl)-[1,2,4]triazolo[1,5-a]pyrazin-2-amine] |
| ≤ 20 nM | CCOc1c(-c2cn[nH]c2)ccn2nc(N[C@H]3CCN(S(C)(=O)=O)C[C@H]3C)nc12 [Example 12, 8-ethoxy-N-((3R,4S)-3-methyl-1-(methylsulfonyl)piperidin-4-yl)-7-(1H-pyrazol-4-yl)-[1,2,4]triazolo[1,5-a]pyridin-2-amine] |
| ≤ 20 nM | CC(C)Oc1c(-c2cn[nH]c2)ncn2nc(N[C@H]3CCN(S(=O)(=O)CCCN4CCCC4)C[C@H]3C)nc12 [Example 59, 8-Isopropoxy-N-((3R,4S)-3-methyl-1-((3-(pyrrolidin-1-yl)propyl)sulfonyl)piperidin-4-yl)-7-(1H-pyrazol-4-yl)-[1,2,4]triazolo[1,5-c]pyrimidin-2-amine] |
| ≤ 20 nM | CC(C)Oc1c(-c2cn[nH]c2)ncn2nc(N[C@H]3CCN(S(=O)(=O)CCCN(C)C(C)C)C[C@H]3C)nc12 [Example 57, 8-Isopropoxy-N-((3R,4S)-1-((3-(isopropyl(methyl)amino)propyl)sulfonyl)-3-methylpiperidin-4-yl)-7-(1H-pyrazol-4-yl)-[1,2,4]triazolo[1,5-c]pyrimidin-2-amine] |
| ≤ 20 nM | CC1CC(Oc2c(-c3cn[nH]c3)ncc3nc(N[C@H]4CCN(S(C)(=O)=O)C[C@H]4C)nn23)CCO1 (stereo partly drawn) [Example 112, N-((3R,4S)-3-Methyl-1-(methylsulfonyl)piperidin-4-yl)-5-((2-methyltetrahydro-2H-pyran-4-yl)oxy)-6-(1H-pyrazol-4-yl)-[1,2,4]triazolo[1,5-a]pyrazin-2-amine] |
| ≤ 20 nM | [2H]C(C)(C)Oc1c(-c2cn[nH]c2)ncc2nc(NC3CCN(S(C)(=O)=O)CC3)nn12 [Example 142, N-(1-(Methylsulfonyl)piperidin-4-yl)-5-((propan-2-yl-2-d)oxy)-6-(1H-pyrazol-4-yl)-[1,2,4]triazolo[1,5-a]pyrazin-2-amine] |

| Compound | IC50 |
| --- | --- |
| CC(C)COc1c(-c2ccnc(N)c2)ccn2nc(NC3CCN(S(C)(=O)=O)CC3)nc12 [Example 16, 7-(2-aminopyridin-4-yl)-8-isobutoxy-N-(1-(methylsulfonyl)piperidin-4-yl)-[1,2,4]triazolo[1,5-a]pyridin-2-amine] | ≤ 20 nM |
| C[C@@H]1CN(S(C)(=O)=O)CC[C@@H]1Nc1nc2ccc(-c3cn[nH]c3)c(OC3CCC3)n2n1 [Example 69, 5-Cyclobutoxy-N-((3R,4S)-3-methyl-1-(methylsulfonyl)piperidin-4-yl)-6-(1H-pyrazol-4-yl)-[1,2,4]triazolo[1,5-a]pyridin-2-amine] | ≤ 20 nM |
| CC(C)COc1c(-c2cn[nH]c2)ccn2nc(NC3CCN(S(C)(=O)=O)CC3)nc12 [Example 3, 8-isobutoxy-N-(1-(methylsulfonyl)piperidin-4-yl)-7-(1H-pyrazol-4-yl)-[1,2,4]triazolo[1,5-a]pyridin-2-amine] | ≤ 20 nM |
| CC(C)COc1c(-c2cn[nH]c2)ncn2nc(NC3CCN(S(C)(=O)=O)CC3)nc12 [Example 44, 8-Isobutoxy-N-(1-(methylsulfonyl)piperidin-4-yl)-7-(1H-pyrazol-4-yl)-[1,2,4]triazolo[1,5-c]pyrimidin-2-amine] | ≤ 20 nM |
